Counter-ions that a name gives are not always drawn.
Experiments:
dopamine D2 receptor = target: T1, dopamine D2 receptor (Homo sapiens, UniProt P14416); experiment: inhibition of spiperone[3H] binding in CHO cells, dopamine D2 receptor; conditions: read-out: pKi D2 (converted)
T1 construct: expressed in transfected cells
Description: (§1) The activity of derivatives of formula 1 as DRD3 ligands, modulators of the activity of DRD3 according to the invention, was evaluated on cells expressing human recombinant DRD3. […] These same compounds show an apparent affinity for the dopamine D2 receptor that is 100 to 500 times weaker. These same compounds have an affinity for the α1 adrenergic receptor that is 20 to 500 times weaker than that for the D3 receptor. The compounds of formula 1 are either antagonists (intrinsic activity<0.10), partial agonists (0.2<intrinsic activity<0.6) or full agonists (intrinsic activity>0.8). The biological results relative to certain compounds of formula 1 are presented in table 2 at the end of the description.

dopamine D3 receptor = target: T2, dopamine D3 receptor (Homo sapiens, UniProt P35462); experiment: inhibition of spiperone[3H] binding in CHO cells, dopamine D3 receptor; conditions: read-out: pKi D3 (converted)
T2 construct: expressed in transfected cells
T2 sequence (P35462 whole entry): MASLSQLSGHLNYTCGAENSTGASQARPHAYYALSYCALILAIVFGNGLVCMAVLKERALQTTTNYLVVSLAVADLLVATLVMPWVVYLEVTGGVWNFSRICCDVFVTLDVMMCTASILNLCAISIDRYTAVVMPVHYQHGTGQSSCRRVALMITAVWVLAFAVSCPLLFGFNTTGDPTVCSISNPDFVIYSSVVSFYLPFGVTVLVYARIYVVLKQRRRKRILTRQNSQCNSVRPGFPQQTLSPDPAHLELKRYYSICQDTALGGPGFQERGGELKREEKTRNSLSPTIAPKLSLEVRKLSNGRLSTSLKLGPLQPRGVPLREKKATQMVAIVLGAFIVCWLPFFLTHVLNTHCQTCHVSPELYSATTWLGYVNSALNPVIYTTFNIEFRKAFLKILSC
Description: as §1

α1-adrenergic receptor = experiment: inhibition of prazocine[3H] binding in rat brain tissue
Description: as §1

human recombinant DRD3 = target: T3, human recombinant DRD3 (Homo sapiens, UniProt P35462); experiment: intrinsic activity on cells expressing human recombinant DRD3; type: cell-based; conditions: antagonists <0.10, partial agonists 0.2-0.6, full agonists >0.8
T3 construct: expressed in transfected cells
T3 sequence (P35462 whole entry): as above
Text: As used above, the term “D3 receptor partial agonist” denotes a compound that forms a complex with DRD3 and that acts as a combined agonist-antagonist, i.e., it induces a physiological response whose intensity is less than that of the natural mediator, dopamine. In vitro, in a cell expressing DRD3, a DRD3 partial agonist produced an active response whose maximum intensity was lower than that produced by dopamine or a by a full agonist, for example quinpirole[(4aR-trans)-4,4a,5,6,7,8,8a,9 octahydro-5-propyl-1H (or 2H)-pyrazolo(3,4-g)quinoline]. A DRD3 partial agonist can also partially prevent the response produced by dopamine or by its full agonists. In vivo, a DRD3 partial agonist produces dopaminergic responses, particularly when dopamine levels are lowered, as is the case with rats with lesions caused by 6-hydroxydopamine or monkeys injected with 1 methyl-4-phenyl-1,2,3,6-tetrahydropyridine (MPTP). Moreover, a DRD3 partial agonist can act as an antagonist in vivo, particularly when DRD3 is subject to sustained dopamine stimulation.
as §1

T1 sequence (P14416 whole entry, species assumed): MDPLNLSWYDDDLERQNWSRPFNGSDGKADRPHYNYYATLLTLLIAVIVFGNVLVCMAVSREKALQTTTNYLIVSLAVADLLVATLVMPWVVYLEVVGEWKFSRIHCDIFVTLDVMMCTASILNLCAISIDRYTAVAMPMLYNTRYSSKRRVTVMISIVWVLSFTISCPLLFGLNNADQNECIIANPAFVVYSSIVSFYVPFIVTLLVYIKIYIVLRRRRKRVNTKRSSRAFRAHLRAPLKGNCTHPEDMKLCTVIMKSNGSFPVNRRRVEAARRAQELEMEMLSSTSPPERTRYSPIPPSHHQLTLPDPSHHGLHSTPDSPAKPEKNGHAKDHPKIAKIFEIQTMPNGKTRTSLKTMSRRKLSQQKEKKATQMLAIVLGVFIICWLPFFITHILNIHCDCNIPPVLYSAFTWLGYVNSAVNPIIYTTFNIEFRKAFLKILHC

N#Cc1cccc(N2CCN(CCCCNC(=O)C3=Cc4ccccc4OC3)CC2)c1 (as salt: hydrochloride) [Example 14, 2H-Chromene-3-carboxylic acid {4-[4-(3-cyanophenyl)-piperazin-1-yl]-1-butyl}-amide]
melting point: 229 °C

CCOC(=O)c1cccc(N2CCN(CCCCNC(=O)C3=Cc4ccccc4OC3)CC2)c1 (as salt: hydrochloride) [Example 21, 3-(4-{4-[(2H-Chromene-3-carbonyl)-amino]-butyl}-piperazin-1-yl)-benzoic acid ethyl ester hydrochloride]
melting point: 229 °C

CCOC(=O)c1ccc(N2CCN(CCCCNC(=O)C3=Cc4ccccc4OC3)CC2)cc1 (as salt: hydrochloride) [Example 22, 4-(4-{4-[(2H-Chromene-3-carbonyl)-amino]-butyl}-piperazin-1-yl)-benzoic acid ethyl ester hydrochloride]
melting point: 237 °C

COc1cc(OC)cc(N2CCN(CCCCNC(=O)C3=Cc4ccccc4OC3)CC2)c1 (as salt: hydrochloride) [Example 23, 2H-Chromene 3 carboxylic acid {4-[4-(3,5-dimethoxyphenyl)piperazin-1-yl]-butyl}-amide hydrochloride]
melting point: 213 °C

O=C(NCCCCN1CCN(c2cccc(Cl)c2Cl)CC1)C1=Cc2cc(Cl)ccc2OC1 (as salt: hydrochloride) [Example 28, 6-Chloro-2H-Chromene-3-carboxylic acid {4-[4-(2,3-dichlorophenyl)-piperazin-1-yl]-butyl}-amide]
melting point: 214 °C

COc1ccc(Br)c2c1OCC(C(=O)NCCCCN1CCN(c3ccccc3F)CC1)=C2 (as salt: hydrochloride) [Example 49, 5-Bromo-8-methoxy-2H-chromene-3-carboxylic acid {4-[4 (2-fluorophenyl)-piperazin-1-yl]-butyl}-amide hydrochloride]
melting point: 157 °C

O=C(NCCCCN1CCN(c2cccc(Cl)c2Cl)CC1)C1=Cc2ccccc2OC1 [Example 2, 2H-Chromene-3-carboxylic acid {4-[4-(2,3-dichlorophenyl)-piperazin-1-yl]-butyl}-amide]
Ki (dopamine D2 receptor): 123 nM | Ki (dopamine D3 receptor): 0.813 nM | pKi α1 (α1-adrenergic receptor): 7.29

O=C(NCCCCN1CCN(c2cccc(C(F)(F)F)c2)CC1)C1=Cc2ccccc2OC1 [Example 16, 2H-Chromene-3-carboxylic acid {4-[4-(3-trifluoromethylphenyl)-piperazin-1-yl]-butyl}-amide]
Ki (dopamine D2 receptor): 447 nM | Ki (dopamine D3 receptor): 2.69 nM | pKi α1 (α1-adrenergic receptor): 7.55

N#Cc1cccc(N2CCN(CCCCNC(=O)C3=Cc4ccccc4SC3)CC2)c1 [Example 35, 2H-Thiochromene-3-carboxylic acid {4-[4-(3-cyanophenyl)-piperazin-1-yl]-butyl}-amide]
Intrinsic activity (human recombinant DRD3): 0.18 | Ki (dopamine D2 receptor): 3160 nM | Ki (dopamine D3 receptor): 2.4 nM | pKi α1 (α1-adrenergic receptor): 7.32

O=C(NCCCCN1CCN(c2cccc(O)c2)CC1)C1=Cc2ccccc2SC1 [Example 41, 2H-Thiochromene-3-carboxylic acid {4-[4-(3-hydroxyphenyl)-piperazin-1-yl]-butyl}-amide]
Intrinsic activity (human recombinant DRD3): 0.64 | Ki (dopamine D2 receptor): 3800 nM | Ki (dopamine D3 receptor): 0.661 nM | pKi α1 (α1-adrenergic receptor): 7.08

COc1ccc2c(c1)C=C(C(=O)NCCCCN1CCN(c3ccccc3OC)CC1)CO2 [Example 54, 6-Methoxy-2H-chromene-3-carboxylic acid {4-[4-(2-methoxyphenyl)piperazin-1-yl]-butyl}-amide]
Ki (dopamine D2 receptor): 417 nM | Ki (dopamine D3 receptor): 0.537 nM | pKi α1 (α1-adrenergic receptor): 8.05

COc1ccc2c(c1)C=C(C(=O)NCCCCN1CCN(c3cccc(Cl)c3Cl)CC1)CO2 [Example 55, 6-Methoxy-2H-chromene-3-carboxylic acid {4-[4-(2,3-dichlorophenyl)-piperazin-1-yl]-butyl}-amide]
Ki (dopamine D2 receptor): 251 nM | Ki (dopamine D3 receptor): 0.794 nM

CS(=O)(=O)Nc1cccc(N2CCN(CCCCNC(=O)C3=Cc4cc(Cl)ccc4OC3)CC2)c1 [Example 89, 6-chloro-2H-chromene-3-carboxylic acid {4-[4-(3-mesylamino-phenyl}-piperazin-1-yl]-butyl}-amide]
Intrinsic activity (human recombinant DRD3): 0 | Ki (dopamine D2 receptor): 34.7 nM | Ki (dopamine D3 receptor): 0.219 nM | pKi α1 (α1-adrenergic receptor): 6.78

O=C(NCCCCN1CCN(c2cccc3[nH]ccc23)CC1)C1=Cc2ccccc2OC1 [Example 102, 2H-chromene-3-carboxylic acid {4-[4-(1H-indol-4-yl)-piperazin-1-yl]-butyl}-amide]
Intrinsic activity (human recombinant DRD3): 0.59 | Ki (dopamine D2 receptor): 93.3 nM | Ki (dopamine D3 receptor): 0.219 nM | pKi α1 (α1-adrenergic receptor): 8.05

O=C(NCCCCN1CCN(c2cccc3c2OCCO3)CC1)C1=Cc2ccccc2OC1 [Example 105, 2H-chromene-3-carboxylic acid {4-[4-(2,3-dihydro-benzo[1,4]dioxin-5-yl)-piperazin-1-yl]-butyl}-amide]
Ki (dopamine D2 receptor): 132 nM | Ki (dopamine D3 receptor): 0.603 nM | pKi α1 (α1-adrenergic receptor): 7.81

O=C(NCCCCN1CCN(c2cccc3[nH]c(=O)oc23)CC1)C1=Cc2ccccc2OC1 [Example 110, 2H-chromene-3-carboxylic acid {4-[4-(2-oxo-2,3-dihydro-benzoxazol-7-yl)-piperazin-1-yl]-butyl}-amide]
Intrinsic activity (human recombinant DRD3): 0.81 | Ki (dopamine D2 receptor): 7.59 nM | Ki (dopamine D3 receptor): 0.0676 nM | pKi α1 (α1-adrenergic receptor): 8.44

O=C(NCCCCN1CCN(c2cccc3c2OCC3)CC1)C1=Cc2ccccc2OC1 [Example 111, 2H-chromene-3-carboxylic acid {4-[4-(2,3-dihydro-benzofuran-7-yl)-piperazin-1-yl]-butyl} amide]
Intrinsic activity (human recombinant DRD3): 0.26 | Ki (dopamine D2 receptor): 141 nM | Ki (dopamine D3 receptor): 0.676 nM | pKi α1 (α1-adrenergic receptor): 7.84
